# Test results reported in the supplement of paper PMC10307832.
# Tests used:
# Experiment in all cases: relative viability (nuclei count vs DMSO), 5 days (fraction); higher = more cells survive
# Bortezomib + Linsitinib = compound: CC(C)C[C@H](NC(=O)[C@H](Cc1ccccc1)NC(=O)c1cnccn1)B(O)O [Bortezomib] + C[C@]1(O)C[C@@H](c2nc(-c3ccc4ccc(-c5ccccc5)nc4c3)c3c(N)nccn32)C1 [Linsitinib] (partner 1 µM)
# Method in brief: (§1)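 Lung cancer cell lines were pin-tool dosed in 1536-well plates on the day after seeding, with either a lone drug or a fixed anchor-drug dose plus five library-drug doses (not always all listed) in √10 steps. Nuclei were counted on 4× images after 5 days. Relative viability is the ratio of treated-well to vehicle-well nuclei counts, with each value a median of duplicate plates.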
# Obatoclax + Bortezomib = compound: COC1=CC(c2cc3ccccc3[nH]2)=N/C1=C\c1[nH]c(C)cc1C [Obatoclax] + CC(C)C[C@H](NC(=O)[C@H](Cc1ccccc1)NC(=O)c1cnccn1)B(O)O [Bortezomib] (partner 0.002 µM)
# Method in brief: as §1
# Obatoclax + Navitoclax = compound: COC1=CC(c2cc3ccccc3[nH]2)=N/C1=C\c1[nH]c(C)cc1C [Obatoclax] + CC1(C)CCC(c2ccc(Cl)cc2)=C(CN2CCN(c3ccc(C(=O)NS(=O)(=O)c4ccc(N[C@H](CCN5CCOCC5)CSc5ccccc5)c(S(=O)(=O)C(F)(F)F)c4)cc3)CC2)C1 [Navitoclax] (partner 0.5 µM)
# Method in brief: as §1
# Obatoclax + Decitabine = compound: COC1=CC(c2cc3ccccc3[nH]2)=N/C1=C\c1[nH]c(C)cc1C [Obatoclax] + Nc1ncn([C@H]2C[C@H](O)[C@@H](CO)O2)c(=O)n1 [Decitabine] (partner 2 µM)
# Method in brief: as §1
Cell Line,relative viability (Bortezomib + Linsitinib; first compound 0.0002 µM),relative viability (Bortezomib + Linsitinib; first compound 0.000632 µM),relative viability (Bortezomib + Linsitinib; first compound 0.002 µM),relative viability (Bortezomib + Linsitinib; first compound 0.006325 µM),relative viability (Bortezomib + Linsitinib; first compound 0.02 µM),relative viability (Obatoclax + Bortezomib; first compound 0.01 µM),relative viability (Obatoclax + Bortezomib; first compound 0.03162 µM),relative viability (Obatoclax + Bortezomib; first compound 0.1 µM),relative viability (Obatoclax + Bortezomib; first compound 0.3162 µM),relative viability (Obatoclax + Bortezomib; first compound 1 µM),relative viability (Obatoclax + Navitoclax; first compound 0.01 µM),relative viability (Obatoclax + Navitoclax; first compound 0.03162 µM),relative viability (Obatoclax + Navitoclax; first compound 0.1 µM),relative viability (Obatoclax + Navitoclax; first compound 0.3162 µM),relative viability (Obatoclax + Navitoclax; first compound 1 µM),relative viability (Obatoclax + Decitabine; first compound 0.01 µM),relative viability (Obatoclax + Decitabine; first compound 0.03162 µM),relative viability (Obatoclax + Decitabine; first compound 0.1 µM),relative viability (Obatoclax + Decitabine; first compound 0.3162 µM),relative viability (Obatoclax + Decitabine; first compound 1 µM)
NCI-H1755,1.01,0.955,1,0.323,0.149,0.926,0.937,0.805,0.949,0.967,0.974,0.966,1,0.951,1.04,0.684,0.617,0.697,0.655,0.662
PC-14,0.941,0.917,0.974,0.152,0.0932,0.782,0.947,0.777,0.798,0.283,0.968,1.07,0.962,0.847,0.128,0.209,0.17,0.147,0.0898,0.0842
NCI-H322M,0.906,,0.999,0.831,0.294,1.13,1.21,1.41,1.16,1.34,1.16,1.26,1.29,1.14,1.39,0.701,0.687,0.856,0.818,0.662
NCI-H1666,0.791,0.777,0.932,0.226,0.2,0.863,0.815,0.979,0.348,0.35,0.839,1.31,0.865,0.388,0.277,0.731,0.688,0.68,0.586,0.691
A-427,1.06,1.03,1.1,1.16,0.285,1.02,0.966,1.01,1.01,0.944,0.864,0.917,0.95,0.986,0.959,0.528,0.525,0.491,0.614,0.504
NCI-H1651,0.943,0.996,0.31,0.133,0.12,0.901,0.855,0.858,0.943,0.992,1.04,0.991,0.968,0.507,0.224,0.582,0.338,0.434,0.355,0.495
NCI-H520,1.12,0.991,0.483,0.137,0.143,0.664,0.525,0.562,0.299,0.264,1.1,1.16,1.07,0.795,0.288,0.441,0.309,0.631,0.507,0.292
201T,1.04,1.1,0.921,1.08,0.4,1.09,1.01,1.13,1.1,1.1,1.23,1.2,1.18,1.21,1.31,0.814,0.731,0.868,0.857,0.92
NCI-H460,0.718,0.772,0.91,0.0249,0.0133,1.01,1.19,0.945,0.0492,0.0392,1.08,1.2,1.12,0.034,0.0115,0.521,0.385,0.522,0.133,0.0944
NCI-H596,0.894,0.813,1.09,0.233,0.18,1.12,0.974,0.812,0.696,0.674,0.898,0.74,0.775,0.519,0.583,0.953,0.986,1.04,0.848,0.79
HARA,0.899,0.836,0.895,0.0675,0.0867,1.1,0.759,1.17,1.02,0.724,1.09,1.11,1.15,0.871,1.11,0.52,0.593,0.528,0.462,0.405
NCI-H2126,0.74,0.711,0.68,0.738,0.374,1.13,1.04,1.09,1.12,1.07,0.837,0.839,0.875,0.887,0.908,0.56,0.536,0.574,0.561,0.587
HCC-827,0.913,0.949,0.821,0.896,0.141,0.928,0.861,0.821,0.855,1.04,0.997,0.99,1.06,0.988,1,0.332,0.273,0.337,0.223,0.355
BEN,0.814,0.927,0.763,0.592,0.173,0.826,0.735,0.356,0.734,0.838,0.0996,0.0601,0.052,0.0537,0.078,0.756,0.553,0.393,0.624,0.659
NCI-H23,,0.574,0.586,0.276,0.114,1.03,0.873,1.13,0.804,0.762,0.907,0.733,0.847,0.537,0.813,0.328,0.272,0.369,0.286,0.349
UMC-11,0.937,0.974,0.936,0.375,0.176,0.645,0.428,0.689,0.743,0.265,0.315,0.311,0.316,0.299,0.111,0.608,0.536,0.475,0.573,0.41
